Laboratory results: patent US12612410B2 (CHILDREN'S HOSPITAL MEDICAL CENTER, priority 2020, dated 2026)

What follows are compounds tested against T1, FLT3 ITD, F691L (Homo sapiens, UniProt P36888, F691L, form not given) (assay: DiscoverX KINOMEscan competition binding, FLT3 ITD, F691L).
T1 construct: fused on or other part: DNA tag for qPCR detection (T7 phage fusion or DNA-tagged protein from HEK-293 cells)
T1 sequence (P36888 1-993 F691L): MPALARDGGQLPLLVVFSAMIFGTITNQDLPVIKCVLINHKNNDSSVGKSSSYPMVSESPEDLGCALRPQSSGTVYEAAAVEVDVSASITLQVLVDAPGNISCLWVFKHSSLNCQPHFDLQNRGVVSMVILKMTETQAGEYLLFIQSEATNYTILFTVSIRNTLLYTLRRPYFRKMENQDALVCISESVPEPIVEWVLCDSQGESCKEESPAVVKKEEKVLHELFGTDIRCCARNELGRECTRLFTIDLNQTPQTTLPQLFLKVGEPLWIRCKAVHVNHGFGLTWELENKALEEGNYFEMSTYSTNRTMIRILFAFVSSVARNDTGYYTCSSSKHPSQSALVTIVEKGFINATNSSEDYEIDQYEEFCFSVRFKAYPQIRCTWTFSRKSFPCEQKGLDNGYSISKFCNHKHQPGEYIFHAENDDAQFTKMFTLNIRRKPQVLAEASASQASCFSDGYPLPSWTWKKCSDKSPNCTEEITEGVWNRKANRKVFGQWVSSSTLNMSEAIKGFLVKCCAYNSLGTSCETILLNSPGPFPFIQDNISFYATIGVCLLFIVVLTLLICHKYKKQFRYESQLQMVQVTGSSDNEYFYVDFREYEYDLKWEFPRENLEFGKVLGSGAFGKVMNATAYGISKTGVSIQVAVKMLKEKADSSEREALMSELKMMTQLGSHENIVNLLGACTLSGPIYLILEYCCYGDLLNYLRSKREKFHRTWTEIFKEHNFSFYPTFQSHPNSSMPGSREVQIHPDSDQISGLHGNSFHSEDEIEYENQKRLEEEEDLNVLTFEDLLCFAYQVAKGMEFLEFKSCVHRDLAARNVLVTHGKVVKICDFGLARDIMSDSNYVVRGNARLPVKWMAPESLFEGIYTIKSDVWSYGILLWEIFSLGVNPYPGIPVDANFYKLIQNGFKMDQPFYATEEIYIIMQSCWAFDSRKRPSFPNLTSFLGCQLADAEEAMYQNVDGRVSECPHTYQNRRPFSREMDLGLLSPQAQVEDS
From the text: Kinase binding data were obtained for various exemplary compounds prepared according to Examples 1-24 using the DiscoverX KINOMVIEscan® active site-directed competition binding site-directed assay protocol described below. […] As a result, the data report thermodynamic interaction affinities (Kd values), rather than IC50 values that are dependent on ATP concentrations. The assay uses a DNA-tagged version of the protein kinase, and an immobilized ligand bound to a solid support. Compounds that directly or indirectly prevent kinase binding to the immobilized ligand reduce the amount of kinase captured on the solid support, which is detected using an ultra-sensitive qPCR method. Affinity constants reported from the assay have been reported to be independent of the immobilized ligand used that is coupled to the solid support (See supplemental information in Fabian, M. A. et. al., (2005) Nat. Biotechnol. 23, 329-336; Wodicka, L. M. et. al., (2010) Chem. Biol. 17, 1241-1249.)
Kinase-tagged T7 phage strains were prepared in an E. coli host derived from the BL21 strain. E. coli were grown to log-phase and infected with T7 phage and incubated with shaking at 32° C. until lysis. The lysates were centrifuged and filtered to remove cell debris. The remaining kinases were produced in HEK-293 cells and subsequently tagged with DNA for qPCR detection. Streptavidin-coated magnetic beads were treated with biotinylated small molecule ligands for 30 minutes at room temperature to generate affinity resins for kinase assays. The liganded beads were blocked with excess biotin and washed with blocking buffer (SeaBlock (Pierce), 1% BSA, 0.05% Tween 20, 1 mM DTT) to remove unbound ligand and to reduce non-specific binding. Binding reactions were assembled by combining kinases, liganded affinity beads, and test compounds in 1× binding buffer (20% SeaBlock, 0.17×PBS, 0.05% Tween 20, 6 mM DTT). Test compounds were prepared as 111× stocks in 100% DMSO. Kds were determined using an 11-point 3-fold compound dilution series with three DMSO control points. All compounds for Kd measurements are distributed by acoustic transfer (non-contact dispensing) in 100% DMSO. The compounds were then diluted directly into the assays such that the final concentration of DMSO was 0.9%. All reactions were performed in polypropylene 384-well plates. Each was a final volume of 0.02 mL. The assay plates were incubated at room temperature with shaking for 1 hour and the affinity beads were washed with wash buffer (1×PBS, 0.05% Tween 20). The beads were then re-suspended in elution buffer (1×PBS, 0.05% Tween 20, 0.5 μM nonbiotinylated affinity ligand) and incubated at room temperature with shaking for 30 minutes. The kinase concentration in the eluates was measured by qPCR.
Binding constants (Kds) were calculated with a standard dose-response curve using the Hill equation. The Hill Slope was set to −1. Curves were fitted using a non-linear least square fit with the Levenberg-Marquardt algorithm.
`CC1(c2cn3c(-c4cccc(N[C@H]5CNC[C@@H]5F)n4)cnc3cn2)CC1` [Compound 1, N-((3S,4S)-4-fluoropyrrolidin-3-yl)-6-(6-(1-methylcyclopropyl)imidazo[1,2-a]pyrazin-3-yl)pyridin-2-amine] was tested, and the Kd was 0.11 nM.
Compound `CC1(c2cn3c(-c4cccc(N[C@@H]5CCNC5)n4)cnc3cn2)CC1` [Compound 3, (R)-6-(6-(1-methylcyclopropyl)imidazo[1,2-a]pyrazin-3-yl)-N-(pyrrolidin-3-yl)pyridin-2-amine] has a Kd of 0.071 nM.
`CC1(c2cn3c(-c4cccc(N[C@H]5CNCC56CC6)n4)cnc3cn2)CC1` [Compound 5, (R)-N-(6-(6-(1-methylcyclopropyl)imidazo[1,2-a]pyrazin-3-yl)pyridin-2-yl)-5-azaspiro[2.4]heptan-7-amine] gave a Kd of 0.023 nM.
With `FC(F)(F)C1(c2cn3c(-c4cccc(N[C@@H]5CCNC5)n4)cnc3cn2)CC1` [Compound 10, (R)-N-(pyrrolidin-3-yl)-6-(6-(1-(trifluoromethyl)cyclopropyl)imidazo[1,2-a]pyrazin-3-yl)pyridin-2-amine] the Kd was 0.3 nM.
`FC(F)c1cn2c(-c3cccc(N[C@H]4CNC[C@@H]4F)n3)cnc2cn1` [Compound 16, 6-(6-(difluoromethyl)imidazo[1,2-a]pyrazin-3-yl)-N-((3S,4S)-4-fluoropyrrolidin-3-yl)pyridin-2-amine] gave a Kd of 0.32 nM.
`FC(F)c1cn2c(-c3cccc(N[C@H]4CNCC[C@@H]4F)n3)cnc2cn1` [Compound 25, 6-(6-(difluoromethyl)imidazo[1,2-a]pyrazin-3-yl)-N-((3S,4S)-4-fluoropiperidin-3-yl)pyridin-2-amine] gave a Kd of 0.074 nM.
Compound `CC(C)(O)c1cn2c(-c3cccc(N[C@@H]4CCCNC4)n3)cnc2cn1` [Compound 30, (R)-2-(3-(6-(piperidin-3-ylamino)pyridin-2-yl)imidazo[1,2-a]pyrazin-6-yl)propan-2-ol] has a Kd of 1.8 nM.
`CC(C)(O)c1cn2c(-c3cccc(N[C@H]4CNCC[C@@H]4F)n3)cnc2cn1` [Compound 31, 2-(3-(6-(((3S,4S)-4-fluoropiperidin-3-yl)amino)pyridin-2-yl)imidazo[1,2-a]pyrazin-6-yl)propan-2-ol] showed a Kd of 0.49 nM.
With `FC(F)(F)COc1cn2c(-c3cccc(N[C@@H]4CCNC4)n3)cnc2cn1` [Compound 38, (R)-N-(pyrrolidin-3-yl)-6-(6-(2,2,2-trifluoroethoxy)imidazo[1,2-a]pyrazin-3-yl)pyridin-2-amine] the Kd was 0.75 nM.
For `F[C@H]1CNC[C@@H]1Nc1cccc(-c2cnc3cnc(C4CC4)cn23)n1` [Compound 50, 6-(6-cyclopropylimidazo[1,2-a]pyrazin-3-yl)-N-((3S,4S)-4-fluoropyrrolidin-3-yl)pyridin-2-amine], the Kd was 0.1 nM.
`Cn1cc(-c2cn3c(-c4cccc(N[C@H]5CNC[C@@H]5F)n4)cnc3cn2)cn1` [Compound 52, N-((3S,4S)-4-fluoropyrrolidin-3-yl)-6-(6-(1-methyl-1H-pyrazol-4-yl)imidazo[1,2-a]pyrazin-3-yl)pyridin-2-amine] gave a Kd of 0.062 nM.
